Test results as given in US20150157023A1, “S[…] CONTROL FROM COMBINATIONS OF 2,4-D-CHOLINE AND GLUFOSINATE” (Dow AgroSciences LLC, priority 2013, published 2015).
Structures can show the parent of a compound that is named as a salt.

Test system: AAD12 Soybean (GLXMA)
Experiment: Field crop tolerance trials (% visual injury, chlorosis, growth inhibition)
Experimental: These trials were conducted under field conditions in multiple states in the United States, including but not limited to Arkansas, Illinois, Indiana, Minnesota, Mississippi, Nebraska, Ohio, Oklahoma, Texas, South Carolina and South Dakota. […] Treatments were applied with small plot backpack sprayers, using pressurized air or carbon dioxide (CO2) as propellant. Pressure varied from 22-50 pounds per square inch (psi), with spray tips typically of a Flat Fan type applying water diluent at 15 gallons per acre (GPA). Boom sizes varied from 6.3-10 ft in width. Treatments were applied to soybean, cotton, corn or fallow crop land. Weed sizes varied, but all treatments were applied as post-emergence treatments to weeds from 2 leaf to 2 tiller growth stages varying from 2 to 15 inches in height. The weed spectrum included, but was not limited to, Amaranthus palmeri S. Wats. (Palmer amaranth, AMAPA), Conyza canadensis (L.) Cronq. (horseweed, ERICA), Salsola tragus L. (Russian thistle, SASKR) and Sesbania exaltata (hemp sesbania, SEBEX).
2,4-D- and glufosinate-tolerant soybeans, corn and cotton and optionally a glyphosate trait in a breeding (CP4 EPSPS) or a molecular stack (2mEPSPS) were used in all tolerance trials.
The 2,4-D-choline salt formulation was a 456 g ae/L SL. […] All treatments were mixed in water at appropriate formulated product rates to achieve the desired rates as shown based on a unit area of application (hectare). Treatments were rated at 2 to 28 days after application (DAA) as compared to the untreated control plants. The trial sites had naturally occurring populations of weeds. The treated plots and control plots were rated blind at various intervals after application. […]

For `O=C(O)COc1ccc(Cl)cc1Cl` [2,4-D-Choline salt, 2-hydroxy-N,N,N-trimethylethanaminium 2-(2,4-dichlorophenoxy)acetate], the “Mean % crop growth inhibition” value (7DAA, 2130 g ae/ha) was 1%, the “Mean % crop growth inhibition” value (14DAA, 2130 g ae/ha) was 0% and the “Mean % crop growth inhibition” value (15DAA, 2130 g ae/ha) was 0%.

In the case of `CP(=O)(O)CCC(N)C(=O)O` (centres unmarked) [Glufosinate-ammonium, ammonium (3-amino-3-carboxypropyl)(methyl)phosphinate], the “Mean % crop growth inhibition” value (7DAA, 1084 g ae/ha) is reported as 14.0% and the “Mean % crop growth inhibition” value (15DAA, 1084 g ae/ha) is reported as 9.8%.
